Measured values taken from PMC7118841 (Biomedicine & Pharmacotherapy, 2006).
Where two headings read alike, the source gives them in different places.

Experiments:
[1] = system: RSV-B (SM-61-48); details: read-out: EC50, RSV-B (SM-61-48); MTT method; data from one experiment; cited from earlier work
[2] = system: MDCK; details: read-out: IC50, cytotoxicity MDCK; MTT method; cited from earlier work
[3] = system: HEp-2; details: read-out: IC50, cytotoxicity HEp-2; MTT method; cited from earlier work
[4] = system: HMV-2; details: read-out: IC50, cytotoxicity HMV-2; MTT method; cited from earlier work
[5] = system: Vero; details: read-out: IC50, cytotoxicity Vero; MTT method; cited from earlier work
[6] = system: MDCK cells; details: cited from earlier work
[7] = system: FluV A (H1N1/PR8); details: cited from earlier work
[8] = system: DFV; details: read-out: EC50, DFV; MTT method; cited from earlier work
[9] = system: FluV A; details: read-out: EC50, FluV A; MTT method; cited from earlier work
[10] = system: RSV; details: read-out: EC50, RSV; MTT method; cited from earlier work
[11] = system: PfluV 2; details: cited from earlier work; for EC50: read-out: EC50, PfluV 2, MTT method
[12] = system: CDV; details: cited from earlier work; for EC50: read-out: EC50, CDV, plaque reduction method
[13] = system: TGEV; type: cell-based, transmissible gastroenteritis virus of swine; details: read-out: EC50, TGEV
[14] = system: FIPV; type: cell-based, feline infectious peritonitis virus; details: read-out: EC50, FIPV
[15] = system: FluV; details: given either orally or intraperitoneally; cited from earlier work
[16] = system: HIV-1; details: read-out: EC50, HIV-1; MTT method; cited from earlier work
[17] = system: SARS-V; type: cell-based, SARS coronavirus; details: read-out: EC50, SARS-V
[18] = system: FluV A; details: read-out: EC50 against FluV A; cited from earlier work
[19] = system: FluV A binding to MDCK cells; details: 8–200 μM of compound during 1.5 hour incubation at 37 °C, moi 1; cited from earlier work
[20] = system: HIV; details: read-out: EC50, anti-HIV, MAGI test; HeLa CD4/LTR-β-Gal cells; cited from earlier work
[21] = system: syncytium formation between MOLT-4 cells (uninfected cells) and MOLT-4/IIIb cells (infected cells); details: MOLT-4 and MOLT-4/IIIb cells; cited from earlier work
[22] = system: gp-120; details: polyclonal mouse antibody; cited from earlier work
[23] = system: CD4; details: mouse antibody; cited from earlier work
[24] = system: CXCR4; details: monoclonal mouse antibody; cited from earlier work
[25] = system: ortho- and paramyxoviruses, herpesviruses and retroviruses (HIV-1 and 2); details: cited from earlier work
[26] = system: RSV; details: cited from earlier work
[27] = system: FluV-A; details: read-out: EC50 against FluV-A; compound present 1.5–3 hours; cited from earlier work
[28] = system: RSV-A; details: read-out: EC50 against RSV-A; compound present 1.5–3 hours; cited from earlier work
[29] = system: FluV; details: data not shown; cited from earlier work
[30] = system: RSV; details: HeLa cells; compound after virus adsorption; cited from earlier work
[31] = system: FluV-A; details: cited from earlier work
[32] = system: RSV-A; details: cited from earlier work

Row | Compound | EC50 [8] [µM] | EC50 [9] [µM] | EC50 [10] [µM] | EC50 [11] [µM] | EC50 [12] [µM] | EC50 [13] [µM] | EC50 [14] [µM] | EC50 [16] [µM] | EC50 [17] [µM] | further results
1 | NC(=O)c1ncn([C@@H]2O[C@H](CO)[C@@H](O)[C@H]2O)n1 [Ribavirin, reference compound] | > 100 | 5 ± 2.8 | 3.9 ± 3.1 | 14 ± 4.8 | 74 ± 35 | – | – | – | – | EC50 [1]: 1.6 µM; IC50 [2]: > 200 µM; IC50 [3]: 52.7 µM; IC50 [4]: > 100 µM; IC50 [5]: 100 µM; Percent viability of cells ([6]; single compound at 100 μM, untreated cells = 100%): 107.2 ± 1.7%; Percent viability of cells ([6]; single compound at 200 μM): 104.8 ± 3.8%; Percent viability of cells ([6]; single compound at 400 μM): 102.8 ± 4.1%; appearance of lungs of infected mice ([7]; 40 mM ribavirin alone, data not shown): swollen and reddened due to congestion; mice survived on the 9th day ([7]; 80 mM ribavirin aerosol every 12 hours for 4 days): 60%; survival at 14 days after the infection ([7]; 80 mM ribavirin alone): 30%
2 | (NBu4)4(PriNH3) [PTi2W10O38(O2)2]2H2O [PM-803] | – | – | – | – | – | 0.34 ± 0.3 | > 21 | – | – | –
3 | Ce2H[BW11Mn(H2O)O39] [HPB-2] | – | – | – | – | – | – | – | – | – | therapeutic effect against FluV infection in mice [15]: potent therapeutic effect
4 | K5[SiVW11O40] [PM-43] | 10.7 ± 6.7 | 8.4 ± 6.5 | 1.6 | > 100 | 7.5 ± 1 | – | – | 0.3 ± 0.12 | – | antiviral activity against PfluV 2 [11]: did not have antiviral activities
5 | K7[BVW11O40] [PM-47] | 10.5 ± 6.9 | 11.5 ± 0.6 | 29 | 67.1 | 6 ± 0.6 | – | – | 0.03 ± 0.01 | – | –
6 | K9H6(Ge2Ti6W18O77)16H2O [PM-504] | – | – | – | – | – | 1.4 ± 0.5 | 0.4 ± 0.3 | – | 3.5 ± 2.4 | EC50 [18]: 1.3 µM; inhibition of the binding of FluV to MDCK cells (FACS) [19]: inhibited the binding
7 | K10Na[(VO)3(SbW9O33)2]26H2O [PM-1001] | – | 1.75 ± 1.6 | < 0.16 | 1.1 ± 0.9 | 5.7 ± 0.5 | 0.14 ± 0.1 | 0.2 ± 0.1 | 0.14 ± 0.17 | 0.7 ± 0.4 | EC50 [20]: 0.01 µM; inhibition of syncytium formation [21]: inhibited syncytium formation; inhibition of binding of anti-gp120 antibody to gp-120 [22]: inhibited; inhibition of binding of anti-CD4 antibody to its target molecule [23]: did not inhibit; inhibition of binding of anti-CRCX4 antibody to its target molecule [24]: did not inhibit
8 | K11H[(VO)3(SbW9O33)2]27H2O [PM-1002] | 2 ± 1.4 | 4 ± 1.7 | 0.75 ± 0.05 | 0.75 ± 0.05 | 2.8 ± 1 | 0.6 ± 0.4 | – | 0.03 ± 0.01 | 0.25 ± 0.07 | EC50 [20]: 0.018 µM; inhibition of syncytium formation [21]: inhibited syncytium formation
9 | K12Nb6P2W12O62 [HS-158] | – | – | – | – | – | – | – | – | – | EC50 [1]: 2.7 µM; IC50 [2]: 164 µM; IC50 [3]: 82.7 µM; IC50 [4]: 53.7 µM; IC50 [5]: > 200 µM
10 | K12[(VO)3(AsW9O33)2]12H2O [PM-1207] | – | – | – | – | – | 1.9 ± 1.4 | 0.09 ± 0.04 | – | 0.9 ± 0.24 | –
11 | K12[(VO)3(BiW9O33)2]29H2O [PM-1208] | – | – | – | – | – | 2 ± 1.8 | > 3.6 | – | 2.7 ± 0.6 | –
12 | K12[(VO)3(PW9O34)2]nH2O [PM-1213] | – | – | – | – | – | 1.7 ± 1 | > 10.5 | – | 0.47 ± 0.14 | –
13 | Na7H9{Eu3O(OH)3(H2O)3}2Al2(Nb6O19)5}47H2O [PM-802] | – | – | – | – | – | 0.5 ± 0.5 | 0.03 ± 0.01 | – | > 50 | –
14 | [(Me3NH)8Si2W18Nb6O77]nH2O [HS-106] | – | – | – | – | – | – | – | – | – | EC50 [1]: 4.5 µM; IC50 [2]: > 200 µM; IC50 [3]: > 200 µM; IC50 [4]: 20.7 µM; IC50 [5]: 148 µM; antiviral activity [25]: broad spectrum antiviral activity; anti-RSV activity [26]: most potent and selective anti-RSV activity
15 | [Et2NH2]7[PTi2W10O40] [PM-518] | 36.8 ± 3 | 62 ± 27 | 26.5 | 53 ± 39 | > 50 | 2.1 ± 1.1 | > 32.9 | 2 ± 0.8 | > 50 | antiviral activity against CDV [12]: did not have antiviral activities
16 | [K10Fe4(H2O)2 (PW9O34)2]nH2O [HS-058] | – | – | – | – | – | – | – | – | – | EC50 [1]: 3.1 µM; IC50 [2]: > 200 µM; IC50 [3]: > 200 µM; IC50 [4]: 50 µM; IC50 [5]: 50 µM; EC50 [27]: > 31 µM; EC50 [28]: > 20 µM; concentration inhibiting hemolysis of chicken erythrocytes by FluV [29]: 58 µM; concentration inhibiting syncytium formation of RSV [30]: 8.5 µM; Inhibition of RNA and protein synthesis [31]: Probably no; Inhibition of fusion between infected and uninfected cells [31]: Unclear; Inhibition of RNA and protein synthesis [32]: Probably no; Inhibition of fusion of virus envelope and cell membrane [32]: Unclear
17 | [NH4]12H(BiW9O33)3Bi6(OH)3(H2O)3V4H10]25H2O [PM-1210] | – | – | – | – | – | 1.6 ± 1.1 | 0.74 ± 0.4 | – | 0.76 ± 0.3 | –
18 | [Na16Fe4(H2O)2(P2W15O56)2]nH2O [HS-054] | – | – | – | – | – | – | – | – | – | EC50 [1]: 7.8 µM; IC50 [2]: > 200 µM; IC50 [3]: 88 µM; IC50 [4]: > 200 µM; IC50 [5]: 50 µM
19 | [Pri2NH2]5[PTiW11O40] [PM-520] | 11.7 ± 7.1 | 45 ± 26 | 0.74 ± 0.6 | 23 ± 2.4 | 7.4 ± 0.4 | 1.4 ± 1.3 | 0.76 ± 0.5 | 2 ± 0.5 | 4.9 ± 1.4 | –
